Test results from PubChem BioAssay (NCI).
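The compound was tested at five concentrations on cells cultured in 96-well plates, with a 48-hour exposure period. TGI is the concentration that stops growth completely.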

How the values were obtained:
Experiment in all cases: inhibition of tumour cell growth, NCI panel, 48 h
ACHN renal = test system: ACHN renal
HOP-62 NSCLC = test system: HOP-62 NSCLC
HS 578T breast = test system: HS 578T breast
M14 melanoma = test system: M14 melanoma
MALME-3M melanoma = test system: MALME-3M melanoma
NCI-H226 lung = test system: NCI-H226 lung
RXF 393 renal = test system: RXF 393 renal
SNB-19 CNS = test system: SNB-19 CNS
T-47D breast = test system: T-47D breast
UO-31 renal = test system: UO-31 renal

`CSc1c(C(=O)Nc2ccc(C)cc2)c(N)nn1-c1ccccc1` was tested, and the TGI (ACHN renal) was over 100 µM, the TGI (HOP-62 NSCLC) was over 100 µM and the TGI (HS 578T breast) was over 100 µM. It also gave a TGI (M14 melanoma) of over 100 µM, a TGI (MALME-3M melanoma) of 75.7 µM and a TGI (NCI-H226 lung) of over 100 µM. The TGI (RXF 393 renal) was 75.3 µM, the TGI (SNB-19 CNS) was over 100 µM and the TGI (T-47D breast) was over 100 µM. For the same compound, the TGI (UO-31 renal) was over 100 µM.
`Nc1nc(Cl)c(C=O)c(NCC2(CO)CC(CCc3ccccc3)C2)n1` (stereo not given) was tested, and the TGI (ACHN renal) was 25.8 µM, the TGI (HOP-62 NSCLC) was 28.6 µM and the TGI (HS 578T breast) was 84.6 µM. The TGI (M14 melanoma) was 6.25 µM, the TGI (MALME-3M melanoma) was 30.2 µM and the TGI (NCI-H226 lung) was 27.7 µM. For the same compound, the TGI (RXF 393 renal) was 31.5 µM, the TGI (SNB-19 CNS) was 27.9 µM and the TGI (T-47D breast) was 31 µM. For the same compound, the TGI (UO-31 renal) was 2.91 µM.
With `N#C/C(=C1\N=C(c2ccccc2O)Oc2ccccc21)c1ccc([N+](=O)[O-])cc1` the TGI (ACHN renal) was over 100 µM, the TGI (HOP-62 NSCLC) was over 100 µM and the TGI (HS 578T breast) was over 100 µM. The TGI (M14 melanoma) was over 100 µM, the TGI (MALME-3M melanoma) was over 100 µM and the TGI (NCI-H226 lung) was over 100 µM. The TGI (RXF 393 renal) was over 100 µM, the TGI (SNB-19 CNS) was over 100 µM and the TGI (T-47D breast) was over 100 µM. For the same compound, the TGI (UO-31 renal) was over 100 µM.
Work on `Clc1ccccc1/C=C/c1nsc(/C=C/c2ccccc2Cl)n1` yielded a TGI (ACHN renal) of over 100 µM, a TGI (HOP-62 NSCLC) of over 100 µM and a TGI (HS 578T breast) of over 100 µM. For the same compound, the TGI (M14 melanoma) was over 100 µM, the TGI (MALME-3M melanoma) was over 100 µM and the TGI (NCI-H226 lung) was over 100 µM. The TGI (RXF 393 renal) was over 100 µM, the TGI (SNB-19 CNS) was over 100 µM and the TGI (T-47D breast) was 42.8 µM. It also gave a TGI (UO-31 renal) of over 100 µM.
`CC(C)(C)c1cc(C(=O)/C=C/c2ccc(O)c(O)c2O)cc(C(C)(C)C)c1O` was tested, and the TGI (ACHN renal) was 18.9 µM, the TGI (HOP-62 NSCLC) was 27.8 µM and the TGI (HS 578T breast) was over 45.1 µM. The TGI (M14 melanoma) was 20.6 µM, the TGI (MALME-3M melanoma) was over 67.5 µM and the TGI (NCI-H226 lung) was 33.2 µM. It also gave a TGI (RXF 393 renal) of 13.3 µM, a TGI (SNB-19 CNS) of over 29.3 µM and a TGI (T-47D breast) of 13.3 µM. For the same compound, the TGI (UO-31 renal) was 13.9 µM.
Compound `O=C(c1ccc(Cl)cc1Cl)N(Cc1cccnc1)C(=S)N(Cc1cccnc1)C(=O)c1ccc(Cl)cc1Cl` has a TGI (ACHN renal) of 23.5 µM, a TGI (HOP-62 NSCLC) of 7.12 µM and a TGI (HS 578T breast) of 66.4 µM. For the same compound, the TGI (M14 melanoma) was 9.26 µM, the TGI (MALME-3M melanoma) was 36.9 µM and the TGI (NCI-H226 lung) was 38.3 µM. The TGI (RXF 393 renal) was 33.2 µM, the TGI (SNB-19 CNS) was 25.1 µM and the TGI (T-47D breast) was 45.7 µM. The TGI (UO-31 renal) was 12.9 µM.
For `O=C(O)C(Cc1ccc2c(c1)CCC2)(Cc1ccc2c(c1)CCC2)C(=O)O`, the TGI (ACHN renal) was over 100 µM, the TGI (HOP-62 NSCLC) was over 100 µM and the TGI (HS 578T breast) was over 100 µM. For the same compound, the TGI (M14 melanoma) was over 100 µM, the TGI (MALME-3M melanoma) was over 100 µM and the TGI (NCI-H226 lung) was over 100 µM. For the same compound, the TGI (RXF 393 renal) was over 100 µM, the TGI (SNB-19 CNS) was over 100 µM and the TGI (T-47D breast) was over 100 µM. It also gave a TGI (UO-31 renal) of over 100 µM.
`CNNC1=NS(=O)(=O)c2cc(C)c(Cl)cc2S1` was tested, and the TGI (ACHN renal) was over 10 µM, the TGI (HOP-62 NSCLC) was over 10 µM and the TGI (HS 578T breast) was over 10 µM. For the same compound, the TGI (M14 melanoma) was over 10 µM, the TGI (MALME-3M melanoma) was over 10 µM and the TGI (NCI-H226 lung) was over 10 µM. The TGI (RXF 393 renal) was over 10 µM, the TGI (SNB-19 CNS) was over 10 µM and the TGI (T-47D breast) was over 10 µM. It also gave a TGI (UO-31 renal) of 0.0901 µM.
`CCOc1ccc2ccccc2c1NC1=NCCO1` was tested, and the TGI (ACHN renal) was over 100 µM, the TGI (HOP-62 NSCLC) was 74.2 µM and the TGI (HS 578T breast) was 78.2 µM. For the same compound, the TGI (M14 melanoma) was over 100 µM, the TGI (MALME-3M melanoma) was over 100 µM and the TGI (NCI-H226 lung) was 85.4 µM. For the same compound, the TGI (RXF 393 renal) was over 100 µM, the TGI (SNB-19 CNS) was over 100 µM and the TGI (T-47D breast) was over 100 µM. For the same compound, the TGI (UO-31 renal) was 64.7 µM.
`Cc1c2c(c(C)n1-c1ccccc1)C(=O)N(CCSC(=N)N)C2=O` gave a TGI (ACHN renal) of over 100 µM, a TGI (HOP-62 NSCLC) of over 100 µM and a TGI (HS 578T breast) of over 100 µM. The TGI (M14 melanoma) was over 100 µM, the TGI (MALME-3M melanoma) was over 100 µM and the TGI (NCI-H226 lung) was over 100 µM. It also gave a TGI (RXF 393 renal) of over 100 µM, a TGI (SNB-19 CNS) of over 100 µM and a TGI (T-47D breast) of 73.6 µM. The TGI (UO-31 renal) was over 100 µM.
In the case of `CSC(SC)=C1C(=O)NN=C1C`, the TGI (ACHN renal) is reported as over 100 µM, the TGI (HOP-62 NSCLC) is reported as over 100 µM and the TGI (HS 578T breast) is reported as over 100 µM. It also gave a TGI (M14 melanoma) of over 100 µM, a TGI (MALME-3M melanoma) of over 100 µM and a TGI (NCI-H226 lung) of over 100 µM. For the same compound, the TGI (RXF 393 renal) was over 100 µM, the TGI (SNB-19 CNS) was over 100 µM and the TGI (T-47D breast) was over 100 µM. It also gave a TGI (UO-31 renal) of over 100 µM.
`CC(CC(=O)CO[C@H]1[C@H](O)[C@@H](O)[C@@H](O)[C@@H]2NC(=O)c3c(cc4c(c3O)OCO4)[C@H]21)OC1OC(CO)C(O)C(O)C1O` (stereo not given in full) was tested, and the TGI (ACHN renal) was 2.6 µM, the TGI (HOP-62 NSCLC) was 2.29 µM and the TGI (HS 578T breast) was 3.76 µM. It also gave a TGI (M14 melanoma) of 2.17 µM, a TGI (MALME-3M melanoma) of 3.16 µM and a TGI (NCI-H226 lung) of 3.54 µM. It also gave a TGI (RXF 393 renal) of 1.8 µM, a TGI (SNB-19 CNS) of 7.89 µM and a TGI (T-47D breast) of 0.894 µM. For the same compound, the TGI (UO-31 renal) was 8.11 µM.
`CCCCCCCCCCCCCCCC(=O)ON1C(=S)NC(C)(c2ccccc2)C1=S` (stereo not given) was tested, and the TGI (ACHN renal) was over 100 µM, the TGI (HOP-62 NSCLC) was over 100 µM and the TGI (HS 578T breast) was over 100 µM. It also gave a TGI (M14 melanoma) of 80.1 µM, a TGI (MALME-3M melanoma) of over 100 µM and a TGI (NCI-H226 lung) of over 100 µM. For the same compound, the TGI (RXF 393 renal) was over 100 µM, the TGI (SNB-19 CNS) was over 100 µM and the TGI (T-47D breast) was over 100 µM. For the same compound, the TGI (UO-31 renal) was over 100 µM.
`CC(=O)OC1/C(=C/c2ccc([N+](=O)[O-])cc2)C[C@H]2[C@@H]3CC=C4C[C@@H](OC(C)=O)CC[C@]4(C)[C@H]3CC[C@]12C` (stereo not given in full) gave a TGI (ACHN renal) of over 100 µM, a TGI (HOP-62 NSCLC) of over 100 µM and a TGI (HS 578T breast) of over 100 µM. For the same compound, the TGI (M14 melanoma) was over 100 µM, the TGI (MALME-3M melanoma) was over 100 µM and the TGI (NCI-H226 lung) was over 100 µM. For the same compound, the TGI (RXF 393 renal) was 60.4 µM, the TGI (SNB-19 CNS) was over 100 µM and the TGI (T-47D breast) was over 100 µM. The TGI (UO-31 renal) was over 100 µM.
In the case of `N=C(/C=C/c1ccc(-c2cn3cc(/C=C/C(=N)N4CCCC4)ccc3n2)cc1)N1CCCC1`, the TGI (ACHN renal) is reported as over 100 µM, the TGI (HOP-62 NSCLC) is reported as over 100 µM and the TGI (HS 578T breast) is reported as over 100 µM. It also gave a TGI (M14 melanoma) of over 100 µM, a TGI (MALME-3M melanoma) of over 100 µM and a TGI (NCI-H226 lung) of over 100 µM. For the same compound, the TGI (RXF 393 renal) was over 100 µM, the TGI (SNB-19 CNS) was over 100 µM and the TGI (T-47D breast) was over 100 µM. The TGI (UO-31 renal) was over 100 µM.
With `O/N=c1/ccn(O)c2ccccc12` the TGI (ACHN renal) was 2.67 µM, the TGI (HOP-62 NSCLC) was 9.43 µM and the TGI (HS 578T breast) was over 100 µM. It also gave a TGI (M14 melanoma) of 6.87 µM, a TGI (MALME-3M melanoma) of 18.9 µM and a TGI (NCI-H226 lung) of 7.14 µM. It also gave a TGI (RXF 393 renal) of 1.64 µM, a TGI (SNB-19 CNS) of 14.1 µM and a TGI (T-47D breast) of 10.3 µM. It also gave a TGI (UO-31 renal) of 3.93 µM.
